IC50 data for 8 compounds are collected here from BindingDB's records for doi:10.1021/ml300214g (2012).

A short description of this assay: Inhibition of CSF1R in mouse M-NFS-60 cells assessed as inhibition of cell proliferation after 72 hrs by Celltiter-Blue assay.

The IC50 is the concentration at which inhibition is half-maximal. Take `CN1C(C)(C)CC(Oc2ccc(C(=O)Nc3ccc(NC(=O)Nc4cc(C(C)(C)C)on4)cc3)nc2)CC1(C)C`: the concentration for half-maximal inhibition (IC50) worked out at 0.0504 µM.
On to `CCN1C(C)(C)CC(Oc2ccc(C(=O)Nc3ccc(NC(=O)Nc4cc(C(C)(C)C)on4)cc3)nc2)CC1(C)C`, for which the 50% inhibitory concentration (IC50) was 0.0463 µM.
Consider `CC(C)(C)c1cc(NC(=O)Nc2ccc(NC(=O)c3ccc(OC4CCN(C5CC5)CC4)cn3)cc2)no1`, for which the IC50 was 0.15 µM.
The same measure for `CC(C)(C)c1cc(NC(=O)Nc2ccc(NC(=O)c3ccc(OC4CCN(C(C)(C)C)CC4)cn3)cc2)no1`: 0.0644 µM; for `CC(C)N1CCC(Oc2ccc(C(=O)Nc3ccc(NC(=O)Nc4cc(C(C)(C)C)on4)cc3)nc2)CC1`: 0.078 µM; for `Cc1ccc(C(=O)Nc2ccc(NC(=O)Nc3cc(C(C)(C)C)on3)cc2)nc1`: 0.223 µM.
The same measure for `Cc1ccnc(C(=O)Nc2ccc(NC(=O)Nc3cc(C(C)(C)C)on3)cc2)c1`: 0.0639 µM.
As for `CC1(C)CC(Oc2ccc(C(=O)Nc3ccc(NC(=O)Nc4cc(C(C)(C)C)on4)cc3)nc2)CC(C)(C)N1`, the IC50 came out at 0.0747 µM.
